Earlier results in PMC8513935.

Tests used:
[1] = log P octanol/water from commercial databases, averaged (the ESI); conditions: Octanol (wet), 25 C
[2] = derived by the authors as gas->solvent minus gas->water (a hypothetical dry solvent; the ESI), not a two-phase measurement
[3] = experimental, compiled by the authors from the literature (the ESI cites the sources)

Compound: CCc1ccc(O)cc1
- log K of transfer, water to solvent [1]: 2.58 log10 K
- log K of transfer, water to solvent ([2]; 1,2-Dichloroethane, 25 C): 1.67 log10 K
- log K of transfer, water to solvent ([2]; CCl4, 25 C): 0.86 log10 K
- log K of transfer, water to solvent ([2]; Chlorobenzene, 25 C): 1.3 log10 K
- log K of transfer, water to solvent ([2]; Chloroform, 25 C): 1.47 log10 K
- log K of transfer, water to solvent ([2]; Dichloromethane, 25 C): 1.66 log10 K
- log K of transfer, water to solvent ([2]; Hexadecane, 25 C): 0.237 log10 K
- log K of transfer, water to solvent ([2]; Hexane, 25 C): 0.29 log10 K
- log K of transfer, water to solvent ([2]; Perfluoroalkane, 25 C): -1.33 log10 K
- log K of transfer, gas to solvent ([3]; 1,2-Dichloroethane, 25 C): 6.17 log10 K
- log K of transfer, gas to solvent ([3]; CCl4, 25 C): 5.36 log10 K
- log K of transfer, gas to solvent ([3]; Chlorobenzene, 25 C): 5.8 log10 K
- log K of transfer, gas to solvent ([3]; Chloroform, 25 C): 5.97 log10 K
- log K of transfer, gas to solvent ([3]; Dichloromethane, 25 C): 6.16 log10 K
- log K of transfer, gas to solvent ([3]; Hexadecane, 25 C): 4.73 log10 K
- log K of transfer, gas to solvent ([3]; Hexane, 25 C): 4.79 log10 K
- log K of transfer, gas to solvent ([3]; Perfluoroalkane, 25 C): 3.17 log10 K
- log K of transfer, gas to solvent ([3]; Water, 25 C): 4.5 log10 K

Compound: c1ccc2c(c1)ccc1ccccc12
- log K of transfer, water to solvent [1]: 4.49 log10 K
- log K of transfer, water to solvent ([2]; 2-Methylpropan-1-ol, 25 C): 4.21 log10 K
- log K of transfer, water to solvent ([2]; 2-Methylpropan-2-ol, 25 C): 4.2 log10 K
- log K of transfer, water to solvent ([2]; 3-Methylbutan-1-ol, 25 C): 4.33 log10 K
- log K of transfer, water to solvent ([2]; Acetone, 25 C): 5.46 log10 K
- log K of transfer, water to solvent ([2]; Acetonitrile, 25 C): 4.93 log10 K
- log K of transfer, water to solvent ([2]; Butan-1-ol, 25 C): 4.45 log10 K
- log K of transfer, water to solvent ([2]; Butan-2-ol, 25 C): 4.27 log10 K
- log K of transfer, water to solvent ([2]; Butanone, 25 C): 5.47 log10 K
- log K of transfer, water to solvent ([2]; Butyronitrile, 25 C): 5.39 log10 K
- log K of transfer, water to solvent ([2]; CCl4, 25 C): 5.25 log10 K
- log K of transfer, water to solvent ([2]; Chloroform, 25 C): 5.06 log10 K
- log K of transfer, water to solvent ([2]; Cyclohexane, 25 C): 4.61 log10 K
- log K of transfer, water to solvent ([2]; Cyclohexanone, 25 C): 5.53 log10 K
- log K of transfer, water to solvent ([2]; Di-n-butyl ether, 25 C): 4.92 log10 K
- log K of transfer, water to solvent ([2]; Ethanol, 25 C): 4.56 log10 K
- log K of transfer, water to solvent ([2]; Heptan-1-ol, 25 C): 4.61 log10 K
- log K of transfer, water to solvent ([2]; Hexadecane, 25 C): 4.83 log10 K
- log K of transfer, water to solvent ([2]; Hexane, 25 C): 4.55 log10 K
- log K of transfer, water to solvent ([2]; Methanol, 25 C): 4.44 log10 K
- log K of transfer, water to solvent ([2]; Octan-1-ol(dry), 25 C): 4.72 log10 K
- log K of transfer, water to solvent ([2]; Pentan-1-ol, 25 C): 4.53 log10 K
- log K of transfer, water to solvent ([2]; Propan-1-ol, 25 C): 4.5 log10 K
- log K of transfer, water to solvent ([2]; Propan-2-ol, 25 C): 4.27 log10 K
- log K of transfer, water to solvent ([2]; Propionitrile, 25 C): 5.34 log10 K
- log K of transfer, water to solvent ([2]; Tetrahydrofuran, 25 C): 5.62 log10 K
- log K of transfer, gas to solvent ([3]; 2-Methylpropan-1-ol, 25 C): 7.01 log10 K
- log K of transfer, gas to solvent ([3]; 2-Methylpropan-2-ol, 25 C): 7 log10 K
- log K of transfer, gas to solvent ([3]; 3-Methylbutan-1-ol, 25 C): 7.13 log10 K
- log K of transfer, gas to solvent ([3]; Acetonitrile, 25 C): 7.73 log10 K
- log K of transfer, gas to solvent ([3]; Butan-1-ol, 25 C): 7.25 log10 K
- log K of transfer, gas to solvent ([3]; Butan-2-ol, 25 C): 7.07 log10 K
- log K of transfer, gas to solvent ([3]; Butanone, 25 C): 8.27 log10 K
- log K of transfer, gas to solvent ([3]; Butyronitrile, 25 C): 8.19 log10 K
- log K of transfer, gas to solvent ([3]; CCl4, 25 C): 8.05 log10 K
- log K of transfer, gas to solvent ([3]; Chloroform, 25 C): 7.86 log10 K
- log K of transfer, gas to solvent ([3]; Cyclohexane, 25 C): 7.41 log10 K
- log K of transfer, gas to solvent ([3]; Cyclohexanone, 25 C): 8.33 log10 K
- log K of transfer, gas to solvent ([3]; Di-n-butyl ether, 25 C): 7.72 log10 K
- log K of transfer, gas to solvent ([3]; Ethanol, 25 C): 7.36 log10 K
- log K of transfer, gas to solvent ([3]; Heptan-1-ol, 25 C): 7.41 log10 K
- log K of transfer, gas to solvent ([3]; Hexadecane, 25 C): 7.63 log10 K
- log K of transfer, gas to solvent ([3]; Hexane, 25 C): 7.35 log10 K
- log K of transfer, gas to solvent ([3]; Methanol, 25 C): 7.24 log10 K
- log K of transfer, gas to solvent ([3]; Octan-1-ol, 25 C): 7.52 log10 K
- log K of transfer, gas to solvent ([3]; Pentan-1-ol, 25 C): 7.33 log10 K
- log K of transfer, gas to solvent ([3]; Propan-1-ol, 25 C): 7.3 log10 K
- log K of transfer, gas to solvent ([3]; Propan-2-ol, 25 C): 7.07 log10 K
- log K of transfer, gas to solvent ([3]; Propanone, 25 C): 8.26 log10 K
- log K of transfer, gas to solvent ([3]; Propionitrile, 25 C): 8.14 log10 K
- log K of transfer, gas to solvent ([3]; Tetrahydrofuran, 25 C): 8.42 log10 K
- log K of transfer, gas to solvent ([3]; Water, 25 C): 2.8 log10 K

Compound: Cc1ccc(C)cc1
- log K of transfer, water to solvent [1]: 3.15 log10 K
- log K of transfer, water to solvent ([2]; 1,2-Dichloroethane, 25 C): 3.78 log10 K
- log K of transfer, water to solvent ([2]; 2-Methylpropan-1-ol, 25 C): 3.03 log10 K
- log K of transfer, water to solvent ([2]; CCl4, 25 C): 3.61 log10 K
- log K of transfer, water to solvent ([2]; Cyclohexane, 25 C): 3.27 log10 K
- log K of transfer, water to solvent ([2]; Ethanol, 25 C): 3.14 log10 K
- log K of transfer, water to solvent ([2]; Hexadecane, 25 C): 3.25 log10 K
- log K of transfer, water to solvent ([2]; Octan-1-ol(dry), 25 C): 3.2 log10 K
- log K of transfer, gas to solvent ([3]; 1,2-Dichloroethane, 25 C): 4.37 log10 K
- log K of transfer, gas to solvent ([3]; 2-Methylpropan-1-ol, 25 C): 3.62 log10 K
- log K of transfer, gas to solvent ([3]; CCl4, 25 C): 4.2 log10 K
- log K of transfer, gas to solvent ([3]; Cyclohexane, 25 C): 3.86 log10 K
- log K of transfer, gas to solvent ([3]; Ethanol, 25 C): 3.73 log10 K
- log K of transfer, gas to solvent ([3]; Hexadecane, 25 C): 3.84 log10 K
- log K of transfer, gas to solvent ([3]; Octan-1-ol, 25 C): 3.79 log10 K
- log K of transfer, gas to solvent ([3]; Water, 25 C): 0.59 log10 K
